Data published in patent US8999359B2, “Composition that prevents damage to trees by harmful insects and a prevention method thereof” (Syngenta Crop Protection, Inc., priority 2004, dated 2015).

Legend:
Type in all cases: in vivo
[1] = tested on: Adult Japanese Pine Sawyer; assay: Insecticidal activity test on Japanese pine sawyer (sprayed pine feed trees)
Description: 1. Insecticidal Activity Test on Japanese Pine Sawyer
After uniformly spraying pine feed trees with spraying solutions at prescribed concentrations using a sprayer, adult Japanese pine sawyers were used in testing to investigate the progress of their mortality and degree of infestation.

Pine Caterpillar Larva = assay: Insecticidal activity test on pine caterpillar larva (spray)
Description: 2. Insecticidal Activity Test on Pine Caterpillar Larva
The mortality of pine caterpillar larva was investigated after uniformly spraying pine feed trees and pine caterpillar larva with spraying solutions at prescribed concentrations using a sprayer.

Fall Webworm Larva = assay: Insecticidal activity test on fall webworm larva (spray)
Description: 3. Insecticidal Activity Test on Fall Webworm Larva
The progress of the mortality of fall webworm larva was investigated after uniformly spraying feed trees (cherry) and fall webworm larva with spraying solutions at prescribed concentrations using a sprayer.

| SMILES | Average infested area (cm2) ([1]; spraying solution 5 ppm) | Mortality (%) After 1 day ([1]; spraying solution 5 ppm) [%] | Mortality (%) After 3 days ([1]; spraying solution 5 ppm) [%] | Mortality (%) After 7 days ([1]; spraying solution 5 ppm) [%] | Average infested area (cm2) ([1]; spraying solution 10 ppm) | Mortality (%) After 1 day ([1]; spraying solution 10 ppm) [%] | Mortality (%) After 3 days ([1]; spraying solution 10 ppm) [%] | Mortality (%) After 7 days ([1]; spraying solution 10 ppm) [%] | Average infested area (cm2) ([1]; spraying solution 20 ppm) | Mortality (%) After 1 day ([1]; spraying solution 20 ppm) [%] | Mortality (%) After 3 days ([1]; spraying solution 20 ppm) [%] | Average infested area (cm2) ([1]; spraying solution 40 ppm) | Mortality (%) After 1 day ([1]; spraying solution 40 ppm) [%] | Mortality (%) After 1 day (Pine Caterpillar Larva; spraying solution 100 ppm) [%] | Mortality (%) After 3 days (Pine Caterpillar Larva; spraying solution 100 ppm) [%] | Mortality (%) After 7 days (Pine Caterpillar Larva; spraying solution 100 ppm) [%] | Mortality (%) After 1 day (Pine Caterpillar Larva; spraying solution 200 ppm) [%] | Mortality (%) After 3 days (Pine Caterpillar Larva; spraying solution 200 ppm) [%] | Mortality (%) After 1 day (Fall Webworm Larva; spraying solution 100 ppm) [%] | Mortality (%) After 3 days (Fall Webworm Larva; spraying solution 100 ppm) [%] | further results |
| --- | --- | --- | --- | --- | --- | --- | --- | --- | --- | --- | --- | --- | --- | --- | --- | --- | --- | --- | --- | --- | --- |
| COP(=S)(OC)Oc1ccc([N+](=O)[O-])c(C)c1 [Fenitrothion, fenitrothion] | 23.3 | 10 | 10 | 10 | 8.6 | 0 | 50 | 80 | 2.4 | 20 | 70 | 1.6 | 90 | 10 | 10 | 20 | 30 | 60 | 0 | 10 | Mortality (%) After 7 days ([1]; spraying solution 20 ppm): 100%; Mortality (%) After 3 days ([1]; spraying solution 40 ppm): 100%; Mortality (%) After 7 days (Pine Caterpillar Larva; spraying solution 200 ppm): 60%; Mortality (%) After 1 day (Pine Caterpillar Larva; spraying solution 500 ppm): 80%; Mortality (%) After 3 days (Pine Caterpillar Larva; spraying solution 500 ppm): 100%; Mortality (%) After 1 day (Pine Caterpillar Larva; spraying solution 1000 ppm): 100%; Mortality (%) After 7 days (Fall Webworm Larva; spraying solution 100 ppm): 20%; Mortality (%) After 1 day (Fall Webworm Larva; spraying solution 200 ppm): 30%; Mortality (%) After 3 days (Fall Webworm Larva; spraying solution 200 ppm): 60%; Mortality (%) After 7 days (Fall Webworm Larva; spraying solution 200 ppm): 70%; Mortality (%) After 1 day (Fall Webworm Larva; spraying solution 500 ppm): 80%; Mortality (%) After 3 days (Fall Webworm Larva; spraying solution 500 ppm): 100%; Mortality (%) After 1 day (Fall Webworm Larva; spraying solution 1000 ppm): 100% |
| CN1COCN(Cc2cnc(Cl)s2)/C1=N\[N+](=O)[O-] [Thiamethoxam, thiamethoxam] | 1.8 | 10 | 60 | 100 | 0.5 | 70 | 80 | 100 | 0.4 | 80 | 100 | 0.3 | 100 | 50 | 80 | 100 | 80 | 100 | 20 | 80 | Mortality (%) After 1 day (Pine Caterpillar Larva; spraying solution 20 ppm): 10%; Mortality (%) After 3 days (Pine Caterpillar Larva; spraying solution 20 ppm): 40%; Mortality (%) After 7 days (Pine Caterpillar Larva; spraying solution 20 ppm): 50%; Mortality (%) After 1 day (Pine Caterpillar Larva; spraying solution 50 ppm): 20%; Mortality (%) After 3 days (Pine Caterpillar Larva; spraying solution 50 ppm): 60%; Mortality (%) After 7 days (Pine Caterpillar Larva; spraying solution 50 ppm): 80%; Mortality (%) After 1 day (Fall Webworm Larva; spraying solution 50 ppm): 0%; Mortality (%) After 3 days (Fall Webworm Larva; spraying solution 50 ppm): 30%; Mortality (%) After 7 days (Fall Webworm Larva; spraying solution 50 ppm): 50%; Mortality (%) After 7 days (Fall Webworm Larva; spraying solution 100 ppm): 80%; Mortality (%) After 1 day (Fall Webworm Larva; spraying solution 200 ppm): 30%; Mortality (%) After 3 days (Fall Webworm Larva; spraying solution 200 ppm): 90%; Mortality (%) After 7 days (Fall Webworm Larva; spraying solution 200 ppm): 100%; Mortality (%) After 1 day (Fall Webworm Larva; spraying solution 300 ppm): 80%; Mortality (%) After 3 days (Fall Webworm Larva; spraying solution 300 ppm): 100% |
